For the experiment, the system named is M. mycetomatis genome strain MM55. Put plainly: CLSI M38-A2 based in vitro susceptibility screening (XTT or resazurin), growth at fixed concentration. In kind it is cell-based, Madurella mycetomatis. The conditions noted are these: Madurella mycetomatis; for Percent fungal survival at 100 µM: read-out: Percentage survival at 100um, 100 uM A (second replicate column).

Setting [1] is: mean of three, M. mycetomatis MM55, read-out: Percentage survival at 25um, 25 uM mean.
Where [2] appears, read: replicate A, M. mycetomatis MM55, read-out: Percentage survival at 25um, 25 um A.
[3] abbreviates: replicate B, M. mycetomatis MM55, read-out: Percentage survival at 25um, 25 uM B.
Where [4] appears, read: replicate C, M. mycetomatis MM55, read-out: Percentage survival at 25um, 25 uM C.
The mark [5] stands for this setting: mean of three, M. mycetomatis MM55, read-out: Percentage survival at 100um, 100 uM mean.
Setting [6] is: replicate 1, M. mycetomatis MM55, read-out: Percentage survival at 100um, 100 uM A (first replicate column).
Where [7] appears, read: replicate 2, M. mycetomatis MM55.
Where [8] appears, read: replicate 3, M. mycetomatis MM55, read-out: Percentage survival at 100um, 100 uM A (third replicate column).
Setting [9] is: mean, read-out: Percentage survival at 25um, 25 uM mean.
[10] abbreviates: replicate A, read-out: Percentage survival at 25um, 25 um A.
The mark [11] stands for this setting: replicate B, read-out: Percentage survival at 25um, 25 uM B.
Setting [12] is: replicate C, read-out: Percentage survival at 25um, 25 uM C.
Setting [13] is: mean, read-out: Percentage survival at 100um, 100 uM mean.
Where [14] appears, read: replicate (first column), read-out: Percentage survival at 100um, 100 uM A.
The mark [15] stands for this setting: replicate (second column), read-out: Percentage survival at 100um, 100 uM A.
[16] abbreviates: replicate (third column), read-out: Percentage survival at 100um, 100 uM A.
Setting [17] is: mean of replicates, read-out: Percentage survival at 25um, 25 uM mean.
Setting [18] is: mean of replicates, read-out: Percentage survival at 100um, 100 uM mean.
The mark [19] stands for this setting: replicate 1, read-out: Percentage survival at 100um, 100 uM A (first replicate column).
Setting [20] is: replicate 3, read-out: Percentage survival at 100um, 100 uM A (third replicate column).
Setting [21] is: replicate 1, read-out: Percentage survival at 100um, 100 uM A.
Setting [22] is: replicate 2, read-out: Percentage survival at 100um, 100 uM A.
The mark [23] stands for this setting: replicate 3, read-out: Percentage survival at 100um, 100 uM A.
Where [24] appears, read: mean of replicates, MM55, read-out: Percentage survival at 25um, 25 uM mean.
Setting [25] is: replicate A, MM55, read-out: Percentage survival at 25um, 25 um A.
Setting [26] is: replicate B, MM55, read-out: Percentage survival at 25um, 25 uM B.
Setting [27] is: replicate C, MM55, read-out: Percentage survival at 25um, 25 uM C.
The mark [28] stands for this setting: mean of replicates, MM55, read-out: Percentage survival at 100um, 100 uM mean.
Setting [29] is: replicate 1, MM55, read-out: Percentage survival at 100um, 100 uM A.
[30] abbreviates: replicate 2, MM55, read-out: Percentage survival at 100um, 100 uM A.
The mark [31] stands for this setting: replicate 3, MM55, read-out: Percentage survival at 100um, 100 uM A.
The mark [32] stands for this setting: mean of three replicates, read-out: Percentage survival at 25um, 25 uM mean.
Where [33] appears, read: mean of three replicates, read-out: Percentage survival at 100um, 100 uM mean.

Structures are written as SMILES. Read-outs that look alike come from different tables or passages of the source.

Take `O=C(Nc1ccc(Cl)c(C(F)(F)F)c1)C(CCCl)C(=O)Nc1ccc(Cl)c(C(F)(F)F)c1` [MMV1580840]: the activity at 25 µM reads like this: under setting [1], 56.9%; under setting [2], 58.8%; under setting [3], 55.1%; under setting [4], 56.9%. The activity at 100 µM was 36.8% under setting [5], 0.352% under setting [6] and 51.8% under setting [8]. The Percent fungal survival at 100 µM under setting [7] amounted to 58.3%.
With `O=C(O)c1ccccc1Sc1ncnc2sc3c(c12)CCC3` [MMV1579878], the activity at 25 µM under setting [9] is 83.5%, the activity at 25 µM under setting [10] is 89.3%, the activity at 25 µM under setting [11] was determined as 87% and the activity at 25 µM under setting [12] worked out at 74.1%. For the same compound, the activity at 100 µM turned out to be 57% under setting [13], 1.56% under setting [14], 73.3% under setting [15] and 96.2% under setting [16].
Regarding `NCCCc1ccccc1C(=O)Nc1ncc([N+](=O)O)s1` [MMV1579786], the activity at 25 µM turned out to be 82.7% under setting [1], 85.5% under setting [2], 82.6% under setting [3] and 80.1% under setting [4]. The activity at 100 µM is 76.6% under setting [5], 71.4% under setting [6] and 75.1% under setting [8]. For the same compound, the Percent fungal survival at 100 µM under setting [7] was found to be 83.2%.
With `COc1cc(Cc2cnc(N)nc2N)c2c(c1OC)OC(C1CC1)C=C2` (centres unmarked) [MMV1613563], the activity at 25 µM was determined as 99.9% under setting [17], 106% under setting [10], 107% under setting [11] and 86.9% under setting [12]. In addition, the activity at 100 µM was determined as 91.5% under setting [18], 93.6% under setting [19] and 87.7% under setting [20]. For the same compound, the Percent fungal survival at 100 µM (replicate 2) came out at 93.2%.
On to `NC[C@H]1OB(O)c2c(OCCCO)cccc21` [MMV1578566], for which the activity at 25 µM under setting [17] is 83%, the activity at 25 µM under setting [10] was determined as 83.4%, the activity at 25 µM under setting [11] came to 92.5% and the activity at 25 µM under setting [12] was determined as 72.9%. Also, the activity at 100 µM under setting [18] turned out to be 97.6%, the activity at 100 µM under setting [21] turned out to be 93.8%, the activity at 100 µM under setting [22] amounted to 96.2% and the activity at 100 µM under setting [23] turned out to be 103%.
Take `CC(=O)Oc1ccccc1C(=O)Nc1ncc([N+](=O)[O-])s1` [MMV688991]: the activity at 25 µM is, setting by setting: under setting [24], 103%; under setting [25], 90%; under setting [26], 88.2%; under setting [27], 131%. The activity at 100 µM amounted to 68% under setting [28], 76.1% under setting [29], 57.8% under setting [30] and 70.1% under setting [31].
`CC1=C(/C=C/C(C)=C/C=C/C(C)=C/C(=O)Nc2ccc(O)cc2)C(C)(C)CCC1` [MMV001793]: the activity at 25 µM by setting is: under setting [32], 68.1%; under setting [10], 69.1%; under setting [11], 68.9%; under setting [12], 66.2%. In addition, the activity at 100 µM is 62% under setting [33], 59% under setting [19] and 68.7% under setting [20]. For the same compound, the Percent fungal survival at 100 µM (replicate 2) was determined as 58.3%.
Regarding `O=C(O)/C=C/C=C/c1cccc(Oc2cc(Cl)cc(Cl)c2)c1` [MMV1633963], the activity at 25 µM under setting [24] turned out to be 44.9%, the activity at 25 µM under setting [25] amounted to 58.7%, the activity at 25 µM under setting [26] is 58.6% and the activity at 25 µM under setting [27] is 17.4%. In addition, the activity at 100 µM came to 7.42% under setting [28], 7.5% under setting [29], 5.34% under setting [30] and 9.43% under setting [31].
On to `O=C1c2cccc3cccc(c23)C(=O)N1CC1CO1` (centres unmarked) [MMV1634360], for which the activity at 25 µM by setting is: under setting [9], 61%; under setting [10], 65.4%; under setting [11], 62.1%; under setting [12], 55.4%. The activity at 100 µM reads like this: under setting [13], 2.87%; under setting [14], -2.26%; under setting [15], 3.27%; under setting [16], 7.61%.
As for `CNc1nc(=O)[nH]cc1F` [MMV1782388], the activity at 25 µM was determined as 81.1% under setting [9], 88.9% under setting [10], 76.2% under setting [11] and 78.1% under setting [12]. In addition, the activity at 100 µM worked out at 93.4% under setting [13], 99.3% under setting [14], 85.3% under setting [15] and 95.6% under setting [16].
Regarding `Cc1ccccc1NC(=O)Nc1cccc([N+](=O)[O-])c1` [MMV1581029], the activity at 25 µM under setting [32] was 89.2%, the activity at 25 µM under setting [10] is 95.8%, the activity at 25 µM under setting [11] came to 97.7% and the activity at 25 µM under setting [12] was 74%. The activity at 100 µM (first replicate column, read-out: Percentage survival at 100um, 100 uM A) was 95.6%; the activity at 100 µM under setting [33] was 92.5%; the activity at 100 µM (second replicate column, read-out: Percentage survival at 100um, 100 uM A) was determined as 104%; the activity at 100 µM (third replicate column, read-out: Percentage survival at 100um, 100 uM A) worked out at 77.8%.
Turning to `CC(=O)NC[C@H]1CN(c2ccc(N3CCSCC3)c(F)c2)C(=O)O1` [MMV688756], the activity at 25 µM was found to be 96.1% under setting [17], 94.4% under setting [10], 99.9% under setting [11] and 94.2% under setting [12]. Moreover, the activity at 100 µM is 92.4% under setting [18], 100% under setting [21], 85.2% under setting [22] and 91.6% under setting [23].
In the case of `CC(C)/N=c1\cc2n(-c3ccc(Cl)cc3)c3ccccc3nc-2cc1Nc1ccc(Cl)cc1` [MMV687800], the activity at 25 µM worked out at 71% under setting [1], 77.2% under setting [2], 68.8% under setting [3] and 67.2% under setting [4]. Moreover, the activity at 100 µM by setting is: under setting [5], 71.4%; under setting [6], 65.1%; under setting [8], 73.9%. In addition, under setting [7], the Percent fungal survival at 100 µM amounted to 75.2%.
As to `c1cnc(NCc2ccc(CNc3ncccn3)cc2)nc1` [MMV1580490], the activity at 25 µM runs as follows: under setting [24], 71%; under setting [25], 53.2%; under setting [26], 76.7%; under setting [27], 83.1%. In addition, the activity at 100 µM is, setting by setting: under setting [28], 66.3%; under setting [29], 67.3%; under setting [30], 32.6%; under setting [31], 98.8%.
Consider `O=C(Nc1[nH]c(=O)ncc1F)c1ccccc1` [MMV1782225], for which the activity at 25 µM runs as follows: under setting [9], 79%; under setting [10], 82.4%; under setting [11], 77.6%; under setting [12], 77.1%. Besides, the activity at 100 µM is, setting by setting: under setting [13], 83.6%; under setting [14], 74.1%; under setting [15], 79.1%; under setting [16], 97.6%.
Regarding `O=C(CCc1ccc2c(c1)OCO2)NCc1ccc(-c2ccccc2F)cc1` [MMV1782110], the activity at 25 µM is, setting by setting: under setting [9], 78.7%; under setting [10], 102%; under setting [11], 62.1%; under setting [12], 71.9%. Moreover, the activity at 100 µM under setting [13] was found to be 77.4%, the activity at 100 µM under setting [14] came to 79%, the activity at 100 µM under setting [15] was determined as 73.6% and the activity at 100 µM under setting [16] was determined as 79.5%.
